From patent publication US10766869B2, “Triazoles for the treatment of demyelinating dieases” (Vertex Pharmaceuticals Incorporated, priority 2015, dated 2020)

System: primary rat mixed cortical cells
Assay: In vitro myelination assay (MBP positive myelin strands, fold myelin pixels above background)
Type: cell-based
Conditions: Rattus norvegicus, relative to baseline of no added compound; for fold induction at 1 µM: 1.0 μM compound, read-out: Fold myelin pixels above background, 1.0 μM; for fold induction at 10 µM: 10.0 μM compound, read-out: Fold myelin pixels above background, 10.0 μM
Summary of the method: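 Read-out is total MBP-positive myelin strand pixels per well, detected by custom ridge-tracing software and reported as fold over untreated baseline. Primary P1 rat mixed cortical cells received compound (1.0 or 10.0 μM) for 14 days, with medium half-replaced on days 6 and 10. Standard deviation was taken across all replicates.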

Compound | fold induction at 1 µM | fold induction at 10 µM
Cc1cc(Nc2ncn(-c3ccccc3F)n2)cc(N2CCN(C3COC3)CC2)c1 [Compound 223, 1-(2-fluorophenyl)-N-[3-methyl-5-[4-(oxetan-3-yl)piperazin-1-yl]phenyl]-1,2,4-triazol-3-amine] | 10 to 100 | 10 to 100
Cc1cc(Nc2ncn(-c3ccncc3)n2)cc(N2CCN(C3COC3)CC2)c1 [Compound 224, N-[3-methyl-5-[4-(oxetan-3-yl)piperazin-1-yl]phenyl]-1-(4-pyridyl)-1,2,4-triazol-3-amine] | 100 to 1000 | 10 to 100
Fc1ccccc1-n1cnc(Nc2cc(C3CC3)cc(N3CCN(C4COC4)CC3)c2)n1 [Compound 225, N-[3-cyclopropyl-5-[4-(oxetan-3-yl)piperazin-1-yl]phenyl]-1-(2-fluorophenyl)-1,2,4-triazol-3-amine] | 100 to 1000 | 100 to 1000
CN1CCN(c2cc(Nc3ncn(-c4ccnc(F)c4)n3)cc(C(F)(F)F)c2)CC1 [Compound 226, 1-(2-fluoro-4-pyridyl)-N-[3-(4-methylpiperazin-1-yl)-5-(trifluoromethyl)phenyl]-1,2,4-triazol-3-amine] | 100 to 1000 | ≤ 1
Cc1cc(Nc2ncn(-c3ccccc3)n2)cc(N2CCN3C(=O)OCC3C2)c1 (stereo not shown) [Compound 227, 7-[3-methyl-5-[(1-phenyl-1,2,4-triazol-3-yl)amino]phenyl]-5,6,8,8a-tetrahydro-1H-oxazolo[3,4-a]pyrazin-3-one] | 100 to 1000 | 10 to 100
Cc1cc(Nc2ncn(-c3cc(F)cc(F)c3)n2)cc(N2CCN(C3CS(=O)(=O)C3)CC2)c1 [Compound 228, 1-(3,5-difluorophenyl)-N-[3-[4-(1,1-dioxothietan-3-yl)piperazin-1-yl]-5-methyl-phenyl]-1,2,4-triazol-3-amine] | 10 to 100 | 100 to 1000
Cc1cc(Nc2ncn(-c3cc(F)cc(F)c3)n2)cc(C2CN(C3COC3)C2)c1 [Compound 229, 1-(3,5-difluorophenyl)-N-[3-methyl-5-[1-(oxetan-3-yl)azetidin-3-yl]phenyl]-1,2,4-triazol-3-amine] | 100 to 1000 | 100 to 1000
Fc1cc(Nc2ncn(-c3cccc(F)c3)n2)cc(C2CCN(C3COC3)C2)c1 (stereo not shown) [Compound 230, N-[3-fluoro-5-[1-(oxetan-3-yl)pyrrolidin-3-yl]phenyl]-1-(3-fluorophenyl)-1,2,4-triazol-3-amine] | 1000 to 10000 | ≤ 1
Cc1cc(Nc2ncn(-c3ccc(F)c(F)c3)n2)cc(N2CCN(CC(F)(F)F)CC2)c1 [Compound 231, 1-(3,4-difluorophenyl)-N-[3-methyl-5-[4-(2,2,2-trifluoroethyl)piperazin-1-yl]phenyl]-1,2,4-triazol-3-amine] | 100 to 1000 | 100 to 1000
Cc1cc(Nc2ncn(-c3cc(F)nc(F)c3)n2)cc(N2CCN(C3COC3)CC2)c1 [Compound 232, 1-(2,6-difluoro-4-pyridyl)-N-[3-methyl-5-[4-(oxetan-3-yl)piperazin-1-yl]phenyl]-1,2,4-triazol-3-amine] | 10 to 100 | 10 to 100
COCc1ccccc1-n1cnc(Nc2cc(C)cc(N3CCN(C4COC4)CC3)c2)n1 [Compound 233, 1-[2-(methoxymethyl)phenyl]-N-[3-methyl-5-[4-(oxetan-3-yl)piperazin-1-yl]phenyl]-1,2,4-triazol-3-amine] | ≤ 1 | ≤ 1
C1=C(c2cc(Nc3ncn(-c4ccccc4)n3)cc(C3=CCOC3)c2)COC1 [Compound 234, N-[3,5-bis(2,5-dihydrofuran-3-yl)phenyl]-1-phenyl-1,2,4-triazol-3-amine] | 1 to 10 | 100 to 1000
Cc1cc(Nc2ncn(-c3cc(F)cc(F)c3)n2)cc(C2CCN(C3COC3)CC2(F)F)c1 (stereo not shown) [Compound 235, N-[3-[3,3-difluoro-1-(oxetan-3-yl)-4-piperidyl]-5-methyl-phenyl]-1-(3,5-difluorophenyl)-1,2,4-triazol-3-amine] | 10 to 100 | 10 to 100
CCCc1cc(Nc2ncn(-c3cnccn3)n2)cc(N2CCN(C3COC3)CC2)c1 [Compound 236, N-[3-[4-(oxetan-3-yl)piperazin-1-yl]-5-propyl-phenyl]-1-pyrazin-2-yl-1,2,4-triazol-3-amine] | ≤ 1 | ≤ 1
Cc1cc(N2CCN(C3COC3)CC2)cc(Nc2ncn(-c3ccccc3)n2)c1C [Compound 237, N-[2,3-dimethyl-5-[4-(oxetan-3-yl)piperazin-1-yl]phenyl]-1-phenyl-1,2,4-triazol-3-amine] | 1000 to 10000 | 100 to 1000
Cc1cc(Nc2ncn(-c3cc(F)cc(F)c3)n2)cc(N2CCC(O)CC2)c1 [Compound 238, 1-[3-[[1-(3,5-difluorophenyl)-1,2,4-triazol-3-yl]amino]-5-methyl-phenyl]piperidin-4-ol] | 1000 to 10000 | 100 to 1000

Compound | fold induction at 1 µM | fold induction at 10 µM
Cc1cc(Nc2ncn(-c3ccccc3)n2)cc(O[C@H]2CCN(C3COC3)C2)c1 [Compound 239, N-[3-methyl-5-[(3S)-1-(oxetan-3-yl)pyrrolidin-3-yl]oxy-phenyl]-1-phenyl-1,2,4-triazol-3-amine] | 1000 to 10000 | ≤ 1
Cc1cc(Nc2ncn(-c3cc(F)cc(F)c3)n2)cc(NC2COC2)c1 [Compound 240, N3-[1-(3,5-difluorophenyl)-1,2,4-triazol-3-yl]-5-methyl-N1-(oxetan-3-yl)benzene-1,3-diamine] | 100 to 1000 | 1 to 10
Fc1cc(Nc2ncn(-c3cccc(C(F)(F)F)c3)n2)cc(N2CCCC2)c1 [Compound 241, N-(3-fluoro-5-pyrrolidin-1-yl-phenyl)-1-[3-(trifluoromethyl)phenyl]-1,2,4-triazol-3-amine] | ≤ 1 | ≤ 1
Cc1cc(Nc2ncn(-c3cc(F)cc(F)c3)n2)cc(C2(O)CCN(C)C2)c1 (stereo not shown) [Compound 242, 3-[3-[[1-(3,5-difluorophenyl)-1,2,4-triazol-3-yl]amino]-5-methyl-phenyl]-1-methyl-pyrrolidin-3-ol] | 10 to 100 | ≤ 1
Cc1cc(Nc2ncn(-c3cc(F)cc(F)c3)n2)cc(N2CCN(C3CCOCC3)CC2)c1 [Compound 243, 1-(3,5-difluorophenyl)-N-[3-methyl-5-(4-tetrahydropyran-4-ylpiperazin-1-yl)phenyl]-1,2,4-triazol-3-amine] | 100 to 1000 | ≤ 1
CC1CCN(c2cc(Nc3ncn(-c4cc(F)cc(F)c4)n3)cc(C3CC3)n2)CC1 [Compound 244, 2-cyclopropyl-N-[1-(3,5-difluorophenyl)-1,2,4-triazol-3-yl]-6-(4-methyl-1-piperidyl)pyridin-4-amine] | 1 to 10 | 10 to 100
COc1cc(OC)cc(-n2cnc(Nc3cc(C4CC4)nc(N4CC[C@@H](F)C4)c3)n2)c1 [Compound 245, 2-cyclopropyl-N-[1-(3,5-dimethoxyphenyl)-1,2,4-triazol-3-yl]-6-[(3R)-3-fluoropyrrolidin-1-yl]pyridin-4-amine] | 1 to 10 | 10 to 100
COCC1CCN(c2cc(Cl)cc(Nc3ncn(-c4ccccc4)n3)c2)CC1 [Compound 246, N-[3-chloro-5-[4-(methoxymethyl)-1-piperidyl]phenyl]-1-phenyl-1,2,4-triazol-3-amine] | 10 to 100 | 100 to 1000
Cc1cc(Nc2ncn(-c3ccccc3)n2)cc(C2CCCN(C3COC3)C2)c1 (stereo not shown) [Compound 248, N-[3-methyl-5-[1-(oxetan-3-yl)-3-piperidyl]phenyl]-1-phenyl-1,2,4-triazol-3-amine] | 100 to 1000 | 1 to 10
Cc1cc(Nc2ncn(-c3ccnc(F)c3)n2)cc(NC2CCN(C3COC3)C2)c1 (stereo not shown) [Compound 249, N3-[1-(2-fluoro-4-pyridyl)-1,2,4-triazol-3-yl]-5-methyl-N1-[1-(oxetan-3-yl)pyrrolidin-3-yl]benzene-1,3-diamine] | 10 to 100 | ≤ 1
c1cncc(-n2cnc(Nc3cc(C4CCOCC4)cc(C4CCOCC4)c3)n2)c1 [Compound 250, N-[3,5-di(tetrahydropyran-4-yl)phenyl]-1-(3-pyridyl)-1,2,4-triazol-3-amine] | 100 to 1000 | 10 to 100
c1ccc(-n2cnc(Nc3cc(C4CCOCC4)cc(N4CCOCC4)c3)n2)cc1 [Compound 251, N-(3-morpholino-5-tetrahydropyran-4-yl-phenyl)-1-phenyl-1,2,4-triazol-3-amine] | 100 to 1000 | 1 to 10
Cc1cc(Nc2ncn(-c3cccc(OC(F)(F)F)c3)n2)cc(N2CCN(C3COC3)CC2)c1 [Compound 252, N-[3-methyl-5-[4-(oxetan-3-yl)piperazin-1-yl]phenyl]-1-[3-(trifluoromethoxy)phenyl]-1,2,4-triazol-3-amine] | 1000 to 10000 | 10 to 100
COCCN1CCN(c2cc(C)cc(Nc3ncn(-c4ccccc4)n3)c2)CC1 [Compound 253, N-[3-[4-(2-methoxyethyl)piperazin-1-yl]-5-methyl-phenyl]-1-phenyl-1,2,4-triazol-3-amine] | 1000 to 10000 | 10 to 100
COc1cc(-n2cnc(Nc3cc(C)cc(N4CCN(C5COC5)CC4)c3)n2)ncn1 [Compound 254, 1-(6-methoxypyrimidin-4-yl)-N-[3-methyl-5-[4-(oxetan-3-yl)piperazin-1-yl]phenyl]-1,2,4-triazol-3-amine] | ≤ 1 | 100 to 1000
CCc1cc(F)cc(-n2cnc(Nc3cc(C)cc(N4CCN(C)CC4)c3)n2)c1 [Compound 255, 1-(3-ethyl-5-fluoro-phenyl)-N-[3-methyl-5-(4-methylpiperazin-1-yl)phenyl]-1,2,4-triazol-3-amine] | 100 to 1000 | 100 to 1000
